{"source": "PubChem BioAssay AID2006", "about": "(Sanford-Burnham Center for Chemical Genomics, 2009)", "note": "pIC50: −log10 of the molar value."}
{"biological_target": "SUMO-conjugating enzyme UBC9 (Homo sapiens) (UniProt P63279)", "sequence (P63279 whole entry, looked up)": "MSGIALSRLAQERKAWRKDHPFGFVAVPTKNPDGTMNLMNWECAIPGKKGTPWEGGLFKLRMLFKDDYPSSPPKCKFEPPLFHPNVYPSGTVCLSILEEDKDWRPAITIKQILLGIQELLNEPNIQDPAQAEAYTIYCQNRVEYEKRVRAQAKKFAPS", "assay": "blockers of SAE1/SAE2–UBC9 SUMO transfer – biochemical, HTRF, uHTS, primary screen (AID 2006)", "conditions": "HTRF SUMOylation assay, SAE1/SAE2 + UBC9, in vitro"}
{"compound": "O=C1NC(=Nc2ccc3ccccc3c2)S/C1=C/c1ccco1", "pIC50": 4.85}
{"compound": "O=C(O)c1ccc(/C=N/NC(=O)c2ccc(CN3c4cccc5cccc(c45)S3(=O)=O)cc2)cc1", "pIC50": 4.96}
{"compound": "NS(=O)(=O)c1ccc(NC(=O)c2ccc(-c3ccccc3)cc2)cc1", "pIC50": 4.86}
{"compound": "O=C(CN1C(=O)S/C(=C\\c2ccccc2)C1=O)NNC(=O)c1ccccc1O", "pIC50": 4.42}
